Test results reported in US7244765B2, “Guanylhydrazone salts, compositions, processes of making and methods of using” (Cytokine Pharmasciences, Inc, priority 2004, dated 2007).
Structures can show the parent of a compound that is named as a salt.

Assay: Solubility test of Semapimod salts (sonication at room temperature, filtration, HPLC against a Semapimod-4 HCl/4 H2O standard)
Type: physicochemical
Conditions: for Solubility in H2O: sonicated at room temperature, Nylon syringe filter, HPLC vs standard from Semapimod-4 HCl/4 H2O
Experimental: The product isolated as Semapimod-2 HCl/4 H2O was added to ca. 2 mL of solvents (H2O, 5% Dextrose solution, PBS, and 0.9% NaCl solution), and was sonicated at room temperature until the solid suspended in the solution. The mixture was passed through a Nylon syringe filter, and then 0.5 mL of the filtrate was diluted with MeOH before injection into the HPLC. […] For reference purpose, the solubility of Semapimod-4 HCl/4 H2O was determined according to the previous procedure.
The Semapimod salts mentioned in the above table were subjected to solubility tests using the same procedure outlined above.

| Solubility in 5% Dextrose (5% Dextrose solution, room temperature, HPLC vs standard) | Solubility in H2O | SMILES |
| --- | --- | --- |
| 13.44 mg/mL | ca. 9.54 mg/mL | CC(=NNC(=N)N)c1cc(NC(=O)CCCCCCCCC(=O)Nc2cc(C(C)=NNC(=N)N)cc(C(C)=NNC(=N)N)c2)cc(C(C)=NNC(=N)N)c1.Cl.Cl.O.O.O.O [Semapimod-2 HCl/4 H2O] |
|  | 14.15 mg/mL | C/C(=N\NC(=N)N)c1cc(NC(=O)CCCCCCCCC(=O)Nc2cc(/C(C)=N/NC(=N)N)cc(/C(C)=N/NC(=N)N)c2)cc(/C(C)=N/NC(=N)N)c1 [Semapimod-4 HCl/4 H2O, reference compound] |
